Earlier results in US9433208B2, “Crop oil concentrate adjuvants containing amine surfactants” (Huntsman Petrochemical LLC, priority 2004, dated 2016).
Like-named read-outs stand apart in the source and are kept apart here.

Compound: CNC(=O)CSP(=S)(OC)OC [Cygon, dimethoate]
- time to lose 50 percent of its pest control power (mixed in water of pH 9): 48 min
- time to lose 50 percent of its pest control power (pH of 6): 720 min
